Experimental data: patent US9321740B2, “Tetrazole compounds and methods of making and using same” (Zafgen, Inc., priority 2011, dated 2016)
pIC50: −log10 of the molar value.

Target: T1, recombinant human MetAP2 (Homo sapiens, UniProt P50579)
T1 construct: Flag; made in house; host or cells: Sf9 insect cells
Experiment: Inhibition of recombinant human MetAP2 activity (MAS substrate, amino acid oxidase/Amplex red fluorescence)
Type: biochemical
Conditions: manganese enzyme, 30 minutes at 25° C., pH 7.5, 0.75 mM MAS substrate, 1% DMSO; read-out: Activity (MetAP2 IC50 class)
Description: Compounds are tested for their capacity to inhibit recombinant human MetAP2 activity using the following assay.
Human recombinant Flag-MetAP2 expressed in Sf9 cells followed by affinity purification and EDTA treatment to remove endogenous active site cation was dialysed against MnCl2 to produce the manganese enzyme used in the assay. The assay was carried out for 30 minutes at 25° C. in 50 mM HEPES buffer containing 100 mM NaCl, pH 7.5 the presence of 0.75 mM Methionine-Alanine-Serine (MAS) substrate and 50 μg/mL amino acid oxidase using a dilution of purified MetAP2 giving approximately 50,000 RFU control activity. Cleavage of the substrate by MetAP2 and oxidation of free methionine by amino acid oxidase was detected and quantified using fluorescence generated by Amplex red (10-acetyl-3,7-dihydroxyphenoxazine) in combination with horseradish peroxidase which detects H2O2 released during the oxidation step. The fluorescent signal was detected using a multiwell fluorimeter. Compounds were diluted in DMSO prior to addition to assay buffer, the final DMSO concentration in the assay being 1%.
The IC50 is defined as the concentration at which a given compound achieves 50% inhibition of control. IC50 values are calculated using the XLfit software package (version 2.0.5).

T1 sequence (P50579 whole entry): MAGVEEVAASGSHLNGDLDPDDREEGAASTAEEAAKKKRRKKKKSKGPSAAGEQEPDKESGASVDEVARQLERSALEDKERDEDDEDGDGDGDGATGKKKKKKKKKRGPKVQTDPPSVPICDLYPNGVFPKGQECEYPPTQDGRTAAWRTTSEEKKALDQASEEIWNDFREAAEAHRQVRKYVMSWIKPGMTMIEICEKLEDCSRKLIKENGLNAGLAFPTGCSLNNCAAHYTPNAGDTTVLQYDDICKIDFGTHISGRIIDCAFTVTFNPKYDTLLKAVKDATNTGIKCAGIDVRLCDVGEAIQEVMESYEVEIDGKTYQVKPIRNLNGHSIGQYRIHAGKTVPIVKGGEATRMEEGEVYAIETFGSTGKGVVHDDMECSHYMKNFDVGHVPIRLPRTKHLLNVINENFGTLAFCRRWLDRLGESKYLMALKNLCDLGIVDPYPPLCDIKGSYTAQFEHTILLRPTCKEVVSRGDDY

Row | SMILES | pIC50
1 | O=S(=O)(Nc1ccc2c(c1-c1nnn[nH]1)CCCC2)c1ccccc1 [N-[1-(1H-Tetrazol-5-yl)-5,6,7,8-tetrahydronaphthalen-2-yl]-benzenesulfonamide] | < 6.00
2 | O=S(=O)(Nc1cccc(Br)c1-c1nnn[nH]1)c1ccccc1 [N-[3-Bromo-2-(1H-tetrazol-5-yl)-phenyl]-benzenesulfonamide] | < 6.00
3 | Cc1cccc(NS(=O)(=O)c2ccccc2)c1-c1nnn[nH]1 [N-[3-Methyl-2-(1H-tetrazol-5-yl)-phenyl]-benzenesulfonamide] | < 6.00

The next lines start with the values.

Row | pIC50 | SMILES
4 | > 6.00 | O=S(=O)(Nc1cccc(C2CC2)c1-c1nnn[nH]1)c1ccccc1 [N-[3-Cyclopropyl-2-(1H-tetrazol-5-yl)-phenyl]-benzenesulfonamide]
5 | > 6.00 | COc1cccc(NS(=O)(=O)c2ccccc2)c1-c1nnn[nH]1 [N-[3-Methoxy-2-(1H-tetrazol-5-yl)-phenyl]-benzenesulfonamide]
